Reference: US20080175891A1, “METHODS, COMPOSITIONS, AND FORMULATIONS FOR PREVENTING OR REDUCING ADVERSE EFFECTS IN A PATIENT” (priority 2007, published 2008)
Each block holds one compound with its values, some of them ahead of it.

What was measured:
[1] = tested on: mast cells; assay: Mast cell activation / degranulation; format: cell-based
Description: As discussed in B. Benacerra and A. Unanue in Textbook of Immunology (Williams & Williams Baltimore/London, 1979), a key to suppressing allergic responses is to prevent the release of pharmacologically active substances by mast cells. Mast cells are large basophilic staining cells with extensive granules that contain substances, such as histamines, that are liberated by the mast cell during an allergic reaction and are required to support the allergic response. The release of these pharmacologically active substances present in mast cells is termed “degranulation.” Thus, chemicals that prevent degranulation should have a beneficial effect on reducing the severity of the allergic response. […] Mast cell activation also causes the release of prostaglandins and leukotrienses (non-preformed mediators) such as slow reactive substance of anaphylaxis.

[2] = tested on: arrhythmias; assay: Prophylactic effect of AICA riboside treatment on arrhythmias (Examples VI and XIV); format: in vivo
Description: Another disease caused by or able to cause restricted blood flow is myocardial arrhythmia. Although restricted blood flow can initiate the onset of arrhythmia, the precise cause is unknown. However, it is known that lipid peroxidation by oxygen radicals is arrhythmogenic. Since the latter are produced by granulocytes, the inhibition of granulocyte superoxide production by the method of the invention can be expected to control arrhythmia. In addition, mast cells are in higher concentration in areas of atherosclerosis. Suppression of their activation might reduce the release of other mediators of arrhythmias. Adenosine also has direct anti-arrhythmic effects on myocytes. […] Rapid firing of cells during arrhythmia causes increased net ATP catabolism and adenosine release.

[3] = tested on: seizures; conditions: experimental animal model; cited from earlier work
[4] = tested on: pentylene tetrazol-induced seizures; assay: Pentylene tetrazol-induced seizures (Example XIII); conditions: in vivo
Description: The adenosine released from neuronal cells when they are stimulated and break down ATP during seizure (epileptic) activity normally will feedback and suppress this seizure (epileptic) activity.

[5] = tested on: bronchospasm induced by antigen sensitization; conditions: guinea pig; cited from earlier work
[6] = human, in vivo
Description: Applicant also discovered that lower doses of AICA riboside were needed to achieve the desired blood concentration levels in anesthetized patients than in non-anesthetized patients. It appears that the dose needed in anesthetized patients may be about 20-50% less than the dose needed in non-anesthetized patients. Thus, a preferred dosage of AICA riboside (or prodrug) in a non-anesthetized patient or a patient anesthetized for a short time is larger than the preferred dosage for an anesthetized patient. Accordingly, dosages of from about 0.075 mg/kg/min to about 0.30 mg/kg/min are preferred in such cases, more preferably between about 0.10 mg/kg/min and about 0.15 mg/kg/min, and most preferably about 0.125 mg/kg/min.

[7] = tested on: patients with adenylosuccinase deficiency (autism); assay: Therapeutic trials in patients with adenylosuccinase deficiency (autism) (Example X); format: in vivo, human; conditions: oral
Experimental: Conditions potentially associated with chronic low adenosine may also be treated by compounds of the invention. These pathologic states include autism, insomnia, cerebral palsy, schizophrenia, and other neuropsychiatric symptoms. It is anticipated that doses ranging from 0.1 mg/kg/day up to about 200 mg/kg/day will be beneficial.

- dose needed in anesthetized patients, less than in non-anesthetized patients [6]: 20-50%
Structure (SMILES): NC(=O)c1ncn([C@@H]2O[C@H](CO)[C@@H](O)[C@H]2O)c1N [AICA riboside, 5-amino-1-β-D-ribofuranosyl-imidazole-4-carboxamide]
- mast cell activation [1]: suppress mast cell activation
- mast cell degranulation [1]: prevent mast cell degranulation
- number of premature ventricular depolarizations [2]: decreased number
- number of ventricular tachycardia episodes [2]: decreased number
- inhibition of seizures [3]: inhibitor of seizures
- incidence of pentylene tetrazol-induced seizures [4]: decreased incidence
- latency to pentylene tetrazol-induced seizures [4]: prolonged latency
- anti-allergic actions [5]: anti-allergic actions
- clinical or biochemical side effects ([7]; 5 mg/kg/day increased to 2×10 mg/kg/day): No clinical or biochemical side effects were observed
- behaviour during therapy as described by the parent ([7]; 5 mg/kg/day increased to 2×10 mg/kg/day, both patients): more pleasantly active and more easy to handle during therapy
- clinical improvement ([7]; 5 mg/kg/day increased to 2×5 and finally 2×10 mg/kg/day, two patients): clear-cut improvement in one of two patients

- melting point: 128 to 129 °C
Structure (SMILES): CC(=O)OC[C@H]1O[C@@H](c2nc(C(N)=O)c(N)[nH]2)[C@H](OC(C)=O)[C@@H]1OC(C)=O [Compound No. 2, 5-Amino-(2,3,5-tri-O-acetyl-beta-D-ribofuranosyl)imidazole-4-carboxamide]

- melting point: 181 to 185 °C
Structure (SMILES): Nc1c(C(=O)NCCCCCCNC(=O)c2ncn([C@@H]3O[C@H](CO)[C@@H](O)[C@H]3O)c2N)ncn1[C@@H]1O[C@H](CO)[C@@H](O)[C@H]1O [Compound No. 68, N,N′-bis-(5-amino-1-β-D-ribofuranosylimidazole-4-carbonyl)-1,6-diaminohexane]

Structure (SMILES): NC(=O)c1ncn([C@@H]2O[C@H](CO)[C@@H](O)[C@H]2O)n1 [ribavirin, 1-β-D-ribofuranosyl-1H-1,2,4-triazole-3-carboxamide]
- mast cell activation [1]: suppress mast cell activation
- mast cell degranulation [1]: prevent mast cell degranulation
